Measurements taken from ChEMBL document CHEMBL5131457, “Design, synthesis and biological evaluation of novel 1H-pyrazole-4-carbonyl-4,5,6,7-tetrahydrobenzo [b]thiophene derivatives as gut-selective NaPi2b inhibitors” (Bioorg Med Chem Lett, 2022).

What was measured:
[1] = Solubility of the compound in FaSSIF at pH 6.6; type: physicochemical
[2] = Solubility of the compound in FeSSIF at pH 5.1; type: physicochemical
[3] = target: T1, Sodium-dependent phosphate transport protein 2B (Homo sapiens, UniProt O95436); test: Inhibition of human NaPi2b
T1 sequence (O95436 whole entry): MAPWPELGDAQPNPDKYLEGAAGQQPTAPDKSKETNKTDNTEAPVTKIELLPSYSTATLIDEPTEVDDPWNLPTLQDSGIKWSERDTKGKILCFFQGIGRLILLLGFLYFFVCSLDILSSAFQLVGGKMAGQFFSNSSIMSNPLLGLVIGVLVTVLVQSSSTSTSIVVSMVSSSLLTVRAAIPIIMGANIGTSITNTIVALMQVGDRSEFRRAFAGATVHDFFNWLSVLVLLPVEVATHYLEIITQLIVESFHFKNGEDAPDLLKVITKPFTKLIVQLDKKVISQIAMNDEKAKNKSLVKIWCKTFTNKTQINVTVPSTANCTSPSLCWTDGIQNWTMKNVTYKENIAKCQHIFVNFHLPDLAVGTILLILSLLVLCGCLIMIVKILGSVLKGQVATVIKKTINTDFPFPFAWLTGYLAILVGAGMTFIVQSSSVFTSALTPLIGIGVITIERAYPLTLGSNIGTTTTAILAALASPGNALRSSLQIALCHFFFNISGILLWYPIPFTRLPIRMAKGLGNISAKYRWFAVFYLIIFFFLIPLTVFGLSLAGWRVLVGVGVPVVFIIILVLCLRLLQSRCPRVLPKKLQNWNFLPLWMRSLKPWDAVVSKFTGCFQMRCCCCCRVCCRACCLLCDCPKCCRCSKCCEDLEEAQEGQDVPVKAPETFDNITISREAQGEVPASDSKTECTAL

[4] = Drug concentration in Sprague-Dawley rat intestine at 10 mg/kg, po relative to excretion rate; type: ADME, organism-based; details: in vivo
[5] = Cmax in fasted Sprague-Dawley rat at 10 mg/kg, po; type: ADME, organism-based; parameters: dose 10 mg/kg, route po; details: in vivo
[6] = AUC (0 to t) in fasted Sprague-Dawley rat at 1 mg/kg, iv; type: ADME, organism-based; parameters: dose 1 mg/kg, route iv; details: in vivo; for AUC(0-t): Sprague-Dawley
[7] = Drug concentration in Sprague-Dawley rat intestine at 10 mg/kg, po relative to intestine volume; type: ADME, organism-based; details: in vivo
[8] = Drug excretion in fasted Sprague-Dawley rat feces at 10 mg/kg, po measured after 24 hrs; type: ADME, organism-based; details: faeces, read-out: Drug excretion
[9] = target: T2, Sodium-dependent phosphate transport protein 2B (Rattus norvegicus, UniProt Q9JJ09); test: Inhibition of rat NaPi2b
T2 sequence (Q9JJ09 whole entry): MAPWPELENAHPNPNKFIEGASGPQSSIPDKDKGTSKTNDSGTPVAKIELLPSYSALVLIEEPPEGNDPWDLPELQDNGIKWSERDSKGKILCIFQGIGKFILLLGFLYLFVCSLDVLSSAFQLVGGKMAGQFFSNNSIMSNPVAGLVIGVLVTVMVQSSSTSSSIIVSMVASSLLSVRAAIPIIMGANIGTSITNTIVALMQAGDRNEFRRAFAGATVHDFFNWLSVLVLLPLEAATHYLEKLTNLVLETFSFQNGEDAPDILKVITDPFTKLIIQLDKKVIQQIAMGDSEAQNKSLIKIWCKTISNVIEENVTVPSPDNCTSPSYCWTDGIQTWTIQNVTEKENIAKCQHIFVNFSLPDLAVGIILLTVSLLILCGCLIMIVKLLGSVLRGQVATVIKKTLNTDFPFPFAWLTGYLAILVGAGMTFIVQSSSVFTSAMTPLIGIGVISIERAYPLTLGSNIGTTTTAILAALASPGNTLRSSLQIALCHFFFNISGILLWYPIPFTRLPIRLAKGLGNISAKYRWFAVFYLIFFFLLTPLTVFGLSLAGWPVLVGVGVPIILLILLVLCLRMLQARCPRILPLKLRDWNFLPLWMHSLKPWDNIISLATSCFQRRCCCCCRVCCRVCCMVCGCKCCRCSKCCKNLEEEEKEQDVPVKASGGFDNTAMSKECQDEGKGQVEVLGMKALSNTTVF

[10] = Oral bioavailability in fasted Sprague-Dawley rat at 10 mg/kg; type: ADME, organism-based; details: in vivo; for bioavailability: Sprague-Dawley
[11] = AUC (0 to t) in fasted Sprague-Dawley rat at 10 mg/kg, po; type: ADME, organism-based; parameters: dose 10 mg/kg, route po; details: in vivo; for AUC(0-t): Sprague-Dawley

For `CCC(CC)N(CCN(C)C(=O)CCC(=O)NC(C)(C)C(=O)NCCN(C)C)Cc1cccc(C(=O)Nc2sc3c(c2C(=O)c2cnn(-c4ccc(Cl)c(C(F)(F)F)c4)c2)CCC(C)(C)C3)c1.Cl`, which solubility [1] is on record?
Its solubility is 242 µg/mL.

And the solubility [2]?
The solubility was greater than 434 µg/mL.

Which IC50 [3] does the source give for `CCC(CC)N(CCN(C)C(=O)CCC(=O)O)S(=O)(=O)c1cccc(C(=O)Nc2sc3c(c2C(=O)c2cnn(-c4ccc(Cl)c(C(F)(F)F)c4)c2)CCC(C)(C)C3)c1` here?
Its IC50 is 39 nM.

Which IC50 [3] does the source give for `CCC(CC)N(CCN(C)C(=O)CCC(=O)O)Cc1cccc(C(=O)Nc2sc3c(c2C(=O)c2cnn(-c4ccc(Cl)cc4)c2)CCN(S(C)(=O)=O)C3)c1` here?
The IC50 was 2490 nM.

For `CCC(CC)N(CCN(C)C(=O)CCC(=O)O)Cc1cccc(C(=O)Nc2sc3c(c2C(=O)c2cnn(Cc4nnc[nH]4)c2)CCC(C)(C)C3)c1`, which IC50 [3] is on record?
Its IC50 is greater than 1000 nM.

Which IC50 [3] does the source give for `CCC(CC)N(CCN(C)C(=O)CCC(=O)O)Cc1cccc(C(=O)Nc2sc3c(c2C(=O)c2cnn(-c4ccc(Cl)cc4)c2)CCN(C2CC2)C3)c1` here?
The IC50 was 80 nM.

For `CCC(CC)N(CCN(C)C(=O)CCC(=O)O)Cc1cccc(C(=O)Nc2sc3c(c2C(=O)c2cnn(Cc4cccc(C(=O)O)c4)c2)CCC(C)(C)C3)c1`, which IC50 [3] is on record?
The IC50 was greater than 1000 nM.

What does the source list for `CCC(CC)N(CCN(C)C(=O)CCC(=O)NCCOCCOCCOCCO)Cc1cccc(C(=O)Nc2sc3c(c2C(=O)c2cnn(-c4ccc(Cl)c(C(F)(F)F)c4)c2)CCC(C)(C)C3)c1`?
IC50 [3]: 15 nM; Ct [4]: 36 µg/mL; Cmax [5]: 28.1 ng/mL; AUC(0-t) [6]: 1570 ng·h/mL; Ct [7]: 58 µg/mL; dose excreted at 24 h [8]: 61.7%; IC50 [9]: 2.1 nM; bioavailability [10]: 0.2%; AUC(0-t) [11]: 32.3 ng·h/mL

For `CCC(CC)N(CCN(C)C(=O)CCC(=O)O)Cc1cccc(C(=O)Nc2sc3c(c2C(=O)c2cnn(-c4cccc(C(=O)O)c4)c2)CCC(C)(C)C3)c1`, which IC50 [3] is on record?
The IC50 was greater than 1000 nM.

For `CCC(CC)N(CCN(C)C(=O)CCC(=O)NCCOCCOCCOCCO)Cc1cccc(C(=O)Nc2sc3c(c2C(=O)c2cnn(-c4ccc(Cl)c(C(F)(F)F)c4)c2)CCC(C)(C)C3)c1.Cl`, which solubility [1] is on record?
The solubility was 107 µg/mL.

And the solubility [2]?
The solubility was greater than 384 µg/mL.

For `CCC(CC)N(CCN(C)C(=O)CCC(=O)O)Cc1cccc(C(=O)Nc2sc3c(c2C(=O)c2cnn(-c4cccc(C(F)(F)F)c4)c2)CCC(C)(C)C3)c1`, which IC50 [3] is on record?
Its IC50 is 46 nM.

For `CCC(CC)N(CCN(C)C(=O)CCC(=O)O)Cc1cccc(C(=O)Nc2sc3c(c2C(=O)c2cnn(-c4ccc(Cl)cc4)c2)CCCC3)c1`, which IC50 [3] is on record?
Its IC50 is 118 nM.

Which IC50 [3] does the source give for `CCC(CC)N(CCN(C)C(=O)CCC(=O)O)Cc1cccc(C(=O)Nc2sc3c(c2C(=O)c2cnn(-c4ccc(C(=O)O)cc4)c2)CCC(C)(C)C3)c1` here?
The IC50 was greater than 1000 nM.

For `CCN([C@H]1CC[C@H](C(=O)O)CC1)S(=O)(=O)c1cccc(C(=O)Nc2sc3c(c2C(=O)c2cnn(-c4ccc(Cl)c(C(F)(F)F)c4)c2)CCC(C)(C)C3)c1`, which IC50 [3] is on record?
Its IC50 is 42 nM.

For `CCC(CC)N(CCN(C)C(=O)CCC(=O)O)Cc1cccc(C(=O)Nc2sc3c(c2C(=O)c2cnn(-c4ccc(Cl)c(C(F)(F)F)c4)c2)CCC(C)(C)C3)c1`, which IC50 [3] is on record?
The IC50 was 38 nM.

And the Cmax [5]?
Its Cmax is 625 ng/mL.

What about the AUC(0-t) [6] of the same compound?
The AUC(0-t) was 3070 ng·h/mL.

What about the bioavailability [10] of the same compound?
Its bioavailability is 7.1%.

And the AUC(0-t) [11]?
The AUC(0-t) was 2190 ng·h/mL.

Which IC50 [3] does the source give for `CC1(C)CCc2c(sc(NC(=O)c3cccc(OCCOCCOCCOCCOCCOCCO)c3)c2C(=O)c2cnn(-c3ccc(Cl)c(C(F)(F)F)c3)c2)C1` here?
Its IC50 is 170 nM.

Which results are given for `CCC(CC)N(CCN(C)C(=O)CCC(=O)NC(C)(C)C(=O)NCCN(C)C)Cc1cccc(C(=O)Nc2sc3c(c2C(=O)c2cnn(-c4ccc(Cl)c(C(F)(F)F)c4)c2)CCC(C)(C)C3)c1`?
IC50 [3]: 48 nM; Ct [4]: 45 µg/mL; Cmax [5]: 15.3 ng/mL; AUCt [6]: 2580 ng·h/mL; Ct [7]: 58 µg/mL; dose excreted at 24 h [8]: 76.8%; IC50 [9]: 7.6 nM; F ([10]; po, 10 mg/kg): 0.6%; AUCt [11]: 15.3 ng·h/mL

With `CCC(CC)N(CCN(C)C(=O)CCC(=O)N(C)C[C@H](O)[C@@H](O)[C@@H](O)[C@H](O)CO)Cc1cccc(C(=O)Nc2sc3c(c2C(=O)c2cnn(-c4ccc(Cl)c(C(F)(F)F)c4)c2)CCC(C)(C)C3)c1` as the compound, how does the IC50 [3] read?
Its IC50 is 87 nM.

For `CCC(CC)N(CCN(C)C(=O)CCC(=O)O)Cc1cccc(C(=O)Nc2sc3c(c2C(=O)c2cnn(Cc4ccccc4)c2)CCC(C)(C)C3)c1`, which IC50 [3] is on record?
Its IC50 is 179 nM.

For `CCC(CC)N(CCN(C)C(=O)CCC(=O)O)Cc1cccc(C(=O)Nc2sc3c(c2C(=O)c2cnn(-c4ccc(Cl)cc4)c2)CCOC3)c1`, which IC50 [3] is on record?
The IC50 was 437 nM.

Which IC50 [3] does the source give for `CCC(CC)N(CCN(C)C(=O)CCC(=O)O)Cc1cccc(C(=O)Nc2sc3c(c2C(=O)c2cnn(-c4ccc(Cl)cc4)c2)CCC(C)(C)C3)c1` here?
The IC50 was 36 nM.

With `CCC(CC)N(CCN(C)C(=O)CCC(=O)O)Cc1cccc(C(=O)Nc2sc3c(c2C(=O)c2cnn(Cc4ccc(C(=O)O)cc4)c2)CCC(C)(C)C3)c1` as the compound, how does the IC50 [3] read?
The IC50 was greater than 1000 nM.

With `CCC(CC)N(CCN(C)C(=O)CCC(=O)O)Cc1cccc(C(=O)Nc2sc3c(c2C(=O)c2cnn(-c4ccc(Cl)cc4)c2)CCN(C(C)=O)C3)c1` as the compound, how does the IC50 [3] read?
The IC50 was greater than 1000 nM.

With `CCC(CC)N(CCN(C)C(=O)CCC(=O)O)Cc1cccc(C(=O)Nc2sc3c(c2C(=O)c2cnn(-c4ccc(Cl)cc4)c2)CCSC3)c1` as the compound, how does the IC50 [3] read?
Its IC50 is 713 nM.
